Experimental findings from patent publication US20160271263A1 (Novo Nordisk A/S, priority 2010, published 2016) are described below.

Structures are written as SMILES. Numbered stars: 1 amine (or outer) side, 2 acyl side, 3 side chain; on linkers, the order of the positions; unused ones are H or OH. Side chains are listed from the residue outwards. Peptide text beside a SMILES is read from it. * marks the point of attachment. C18 diacid = O=C(O)CCCCCCCCCCCCCCCCC(=O)*; γGlu = O=C(O)[C@H](CCC(=O)[*:2])N[*:1]; AEEA = NCCOCCOCC(=O)O

For the experiment, the target named is glucagon receptor (Homo sapiens, UniProt P47871). Briefly: cell-based.
Chain of glucagon receptor (P47871 26-477): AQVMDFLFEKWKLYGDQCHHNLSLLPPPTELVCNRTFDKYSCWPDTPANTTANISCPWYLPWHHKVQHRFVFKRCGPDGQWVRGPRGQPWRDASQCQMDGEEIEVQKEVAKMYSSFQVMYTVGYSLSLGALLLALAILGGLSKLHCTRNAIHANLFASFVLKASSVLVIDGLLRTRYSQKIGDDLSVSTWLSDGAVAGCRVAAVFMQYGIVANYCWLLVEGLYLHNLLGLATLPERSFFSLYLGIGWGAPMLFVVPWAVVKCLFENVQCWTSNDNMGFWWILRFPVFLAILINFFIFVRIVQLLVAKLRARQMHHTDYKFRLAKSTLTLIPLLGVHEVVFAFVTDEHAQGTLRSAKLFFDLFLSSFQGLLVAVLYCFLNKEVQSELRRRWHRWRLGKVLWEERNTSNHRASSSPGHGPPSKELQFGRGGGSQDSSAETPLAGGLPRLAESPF
Take `CC(C)C[C@H](NC(=O)[C@H](Cc1ccc(O)cc1)NC(=O)[C@H](CCCCN)NC(=O)[C@H](CO)NC(=O)[C@H](Cc1ccc(O)cc1)NC(=O)[C@H](CC(=O)O)NC(=O)[C@H](CO)NC(=O)[C@@H](NC(=O)[C@H](Cc1ccccc1)NC(=O)[C@@H](NC(=O)CNC(=O)[C@H](CCC(N)=O)NC(=O)[C@H](CO)NC(=O)[C@@H](N)Cc1c[nH]cn1)[C@@H](C)O)[C@@H](C)O)C(=O)N[C@@H](CC(=O)O)C(=O)N[C@@H](CO)C(=O)N[C@@H](CCCNC(=N)N)C(=O)N[C@@H](CCCNC(=N)N)C(=O)N[C@@H](C)C(=O)N[C@@H](CCC(N)=O)C(=O)N[C@@H](CCC(=O)O)C(=O)N[C@@H](Cc1ccccc1)C(=O)N[C@H](C(=O)N[C@@H](CCCCNC(=O)COCCOCCNC(=O)COCCOCCNC(=O)CC[C@H](NC(=O)CCCCCCCCCCCCCCCCC(=O)O)C(=O)O)C(=O)N[C@@H](CCCNC(=N)N)C(=O)N[C@@H](CC(C)C)C(=O)N[C@@H](CC(C)C)C(=O)N[C@@H](CC(N)=O)C(=O)N[C@H](C(N)=O)[C@@H](C)O)C(C)C` [Example 31, N^ε24-([2-[2-[2-[[2-[2-[2-[[(4S)-5-hydroxy-4-[(18-hydroxy-18-oxooctadecanoyl)amino]-5-oxopentanoyl]amino]ethoxy]ethoxy]acetyl]amino]ethoxy]ethoxy]acetyl])[Glu^21, Lys^24, Arg25 Leu^27,]Glucagon peptide amide]: a half-maximal response (EC50) required 0.043 nM. Take `CC(C)C[C@H](NC(=O)[C@H](CC(C)C)NC(=O)[C@H](Cc1c[nH]c2ccccc12)NC(=O)[C@H](CCCCNC(=O)COCCOCCNC(=O)COCCOCCNC(=O)CC[C@H](NC(=O)CCCCCCCCCCCCCCCCC(=O)O)C(=O)O)NC(=O)[C@@H](NC(=O)[C@H](Cc1ccccc1)NC(=O)[C@H](CC(=O)O)NC(=O)[C@H](CCC(N)=O)NC(=O)[C@H](C)NC(=O)[C@H](CCCNC(=N)N)NC(=O)[C@H](CCCNC(=N)N)NC(=O)[C@H](CCC(=O)O)NC(=O)[C@H](CC(=O)O)NC(=O)[C@H](CC(C)C)NC(=O)[C@H](Cc1ccc(O)cc1)NC(=O)[C@H](CCCCN)NC(=O)[C@H](CO)NC(=O)[C@H](Cc1ccc(O)cc1)NC(=O)[C@H](CC(=O)O)NC(=O)[C@H](CO)NC(=O)[C@@H](NC(=O)[C@H](Cc1ccccc1)NC(=O)[C@@H](NC(=O)CNC(=O)[C@H](CCC(N)=O)NC(=O)[C@H](CO)NC(=O)[C@@H](N)Cc1c[nH]cn1)[C@@H](C)O)[C@@H](C)O)C(C)C)C(=O)N[C@@H](C)C(=O)N[C@H](C(N)=O)[C@@H](C)O` [Example 32, N^ε24-([2-[2-[2-[[2-[2-[2-[[(4S)-5-hydroxy-4-[(18-hydroxy-18-oxooctadecanoyl)amino]-5-oxopentanoyl]amino]ethoxy]ethoxy]acetyl]amino]ethoxy]ethoxy]acetyl])[Glu^16, Lys^24, Leu^27, Ala^28] Glucagon peptide amide] (H-HSQGTFTSDYSKYLDERRAQDFVK([AEEA-AEEA-γGlu-C18 diacid])WLLAT-NH2; N-terminus assumed): the concentration for a half-maximal effect (EC50) (usually the concentration giving half of the maximal effect) was 0.0235 nM. With `CC(C)C[C@H](NC(=O)[C@H](Cc1ccc(O)cc1)NC(=O)[C@H](CCCCN)NC(=O)[C@H](CO)NC(=O)[C@H](Cc1ccc(O)cc1)NC(=O)[C@H](CC(=O)O)NC(=O)[C@H](CO)NC(=O)[C@@H](NC(=O)[C@H](Cc1ccccc1)NC(=O)[C@@H](NC(=O)CNC(=O)[C@H](CCC(N)=O)NC(=O)[C@H](CO)NC(=O)[C@@H](N)Cc1c[nH]cn1)[C@@H](C)O)[C@@H](C)O)C(=O)N[C@@H](CC(=O)O)C(=O)N[C@@H](CO)C(=O)N[C@@H](CCC(N)=O)C(=O)N[C@@H](CCCNC(=N)N)C(=O)N[C@@H](C)C(=O)N[C@@H](CCC(N)=O)C(=O)N[C@@H](CC(=O)O)C(=O)N[C@@H](Cc1ccccc1)C(=O)N[C@H](C(=O)N[C@@H](CCCCNC(=O)COCCOCCNC(=O)COCCOCCNC(=O)CC[C@H](NC(=O)CCCCCCCCCCCCCCCCC(=O)O)C(=O)O)C(=O)N[C@@H](Cc1c[nH]c2ccccc12)C(=O)N[C@@H](CC(C)C)C(=O)N[C@H](C(=O)N[C@@H](CCCCN)C(=O)N[C@H](C(=O)NCC(=O)N1CCC[C@H]1C(N)=O)[C@@H](C)O)C(C)C)C(C)C` [Example 33, (N^ε24-([2-[2-[2-[[2-[2-[2-[[(4S)-5-hydroxy-4-[(18-hydroxy-18-oxooctadecanoyl)amino]-5-oxopentanoyl]amino]ethoxy]ethoxy]acetyl]amino]ethoxy]ethoxy]acetyl])[Gln^17, Lys^24, Val^27, Lys^28] Glucagonyl)-Gly-Pro amide] (H-HSQGTFTSDYSKYLDSQRAQDFVK([AEEA-AEEA-γGlu-C18 diacid])WLVKTGP-NH2; N-terminus assumed), the EC50 was determined as 0.942 nM.

`CC(C)C[C@H](NC(=O)[C@H](Cc1ccc(O)cc1)NC(=O)[C@H](CCCCN)NC(=O)[C@H](CO)NC(=O)[C@H](Cc1ccc(O)cc1)NC(=O)[C@H](CC(=O)O)NC(=O)[C@H](CO)NC(=O)[C@@H](NC(=O)[C@H](Cc1ccccc1)NC(=O)[C@@H](NC(=O)CNC(=O)[C@H](CCC(N)=O)NC(=O)[C@H](CO)NC(=O)[C@@H](N)Cc1c[nH]cn1)[C@@H](C)O)[C@@H](C)O)C(=O)N[C@@H](CC(=O)O)C(=O)N[C@@H](CCCCNC(=O)COCCOCCNC(=O)COCCOCCNC(=O)CC[C@H](NC(=O)CCCCCCCCCCCCCCCCC(=O)O)C(=O)O)C(=O)N[C@@H](CCCCN)C(=O)N[C@@H](CCCNC(=N)N)C(=O)N[C@@H](C)C(=O)N[C@@H](CCC(N)=O)C(=O)N[C@@H](CCC(=O)O)C(=O)N[C@@H](Cc1ccccc1)C(=O)N[C@H](C(=O)N[C@@H](CCC(N)=O)C(=O)N[C@@H](Cc1c[nH]c2ccccc12)C(=O)N[C@@H](CC(C)C)C(=O)N[C@@H](CC(C)C)C(=O)N[C@@H](CC(N)=O)C(=O)N[C@H](C(N)=O)[C@@H](C)O)C(C)C` [Example 34, N^ε16-([2-[2-[2-[[2-[2-[2-[[(4S)-5-hydroxy-4-[(18-hydroxy-18-oxooctadecanoyl)amino]-5-oxopentanoyl]amino]ethoxy]ethoxy]acetyl]amino]ethoxy]ethoxy]acetyl])[Lys^16,Lys^17,Glu^21, Leu^27] Glucagon peptide amide] (H-HSQGTFTSDYSKYLDK([AEEA-AEEA-γGlu-C18 diacid])KRAQEFVQWLLNT-NH2; N-terminus assumed) had an EC50 of 0.018 nM. With `CC(C)C[C@H](NC(=O)[C@H](Cc1ccc(O)cc1)NC(=O)[C@H](CCCCN)NC(=O)[C@H](CO)NC(=O)[C@H](Cc1ccc(O)cc1)NC(=O)[C@H](CC(=O)O)NC(=O)[C@H](CO)NC(=O)[C@@H](NC(=O)[C@H](Cc1ccccc1)NC(=O)[C@@H](NC(=O)CNC(=O)[C@H](CCC(N)=O)NC(=O)[C@H](CO)NC(=O)[C@@H](N)Cc1c[nH]cn1)[C@@H](C)O)[C@@H](C)O)C(=O)N[C@@H](CC(=O)O)C(=O)N[C@@H](CO)C(=O)N[C@@H](CCCCN)C(=O)N[C@@H](CCCNC(=N)N)C(=O)N[C@@H](C)C(=O)N[C@@H](CCC(N)=O)C(=O)N[C@@H](CCC(=O)O)C(=O)N[C@@H](Cc1ccccc1)C(=O)N[C@H](C(=O)N[C@@H](CCCCNC(=O)COCCOCCNC(=O)COCCOCCNC(=O)CC[C@H](NC(=O)CCCCCCCCCCCCCCCCC(=O)O)C(=O)O)C(=O)N[C@@H](Cc1c[nH]c2ccccc12)C(=O)N[C@@H](CC(C)C)C(=O)N[C@@H](CC(C)C)C(=O)N[C@@H](CC(N)=O)C(=O)N[C@H](C(N)=O)[C@@H](C)O)C(C)C` [Example 35, N^ε24-([2-[2-[2-[[2-[2-[2-[[(4S)-5-hydroxy-4-[(18-hydroxy-18-oxooctadecanoyl)amino]-5-oxopentanoyl]amino]ethoxy]ethoxy]acetyl]amino]ethoxy]ethoxy]acetyl])[Lys^17,Glu^21, Lys^24, Leu^27]Glucagon peptide amide] (H-HSQGTFTSDYSKYLDSKRAQEFVK([AEEA-AEEA-γGlu-C18 diacid])WLLNT-NH2; N-terminus assumed) the figure was 0.016 nM; with `CC(C)C[C@H](NC(=O)[C@H](Cc1ccc(O)cc1)NC(=O)[C@H](CCCCN)NC(=O)[C@H](CO)NC(=O)[C@H](Cc1ccc(O)cc1)NC(=O)[C@H](CC(=O)O)NC(=O)[C@H](CO)NC(=O)[C@@H](NC(=O)[C@H](Cc1ccccc1)NC(=O)[C@@H](NC(=O)CNC(=O)[C@H](CCC(N)=O)NC(=O)[C@H](CO)NC(=O)[C@@H](N)Cc1c[nH]cn1)[C@@H](C)O)[C@@H](C)O)C(=O)N[C@@H](CC(=O)O)C(=O)N[C@@H](CCC(=O)O)C(=O)N[C@@H](CCCCN)C(=O)N[C@@H](C)C(=O)N[C@@H](C)C(=O)N[C@@H](CCC(N)=O)C(=O)N[C@@H](CCC(=O)O)C(=O)N[C@@H](Cc1ccccc1)C(=O)N[C@H](C(=O)N[C@@H](CCCCNC(=O)COCCOCCNC(=O)COCCOCCNC(=O)CC[C@H](NC(=O)CCCCCCCCCCCCCCCCC(=O)O)C(=O)O)C(=O)N[C@@H](Cc1c[nH]c2ccccc12)C(=O)N[C@@H](CC(C)C)C(=O)N[C@@H](CC(C)C)C(=O)N[C@@H](CC(N)=O)C(=O)N[C@H](C(N)=O)[C@@H](C)O)C(C)C` [Example 36, N^ε24-([2-[2-[2-[[2-[2-[2-[[(4S)-5-hydroxy-4-[(18-hydroxy-18-oxooctadecanoyl)amino]-5-oxopentanoyl]amino]ethoxy]ethoxy]acetyl]amino]ethoxy]ethoxy]acetyl])[Glu^16, Lys^17, Ala^18,Glu^21, Lys^24, Leu^27]Glucagon peptide amide] (H-HSQGTFTSDYSKYLDEKAAQEFVK([AEEA-AEEA-γGlu-C18 diacid])WLLNT-NH2; N-terminus assumed), 0.048 nM.
